# In US4281136A, “2-Alkyl-3-haloisothiazolium salts and their derivatives” (Givaudan Corporation, priority 1978, dated 1981):
# Test system: Ps. aeruginosa
# Test: preservative for cutting oil emulsions
# Format: cell-based
# Conditions: Pseudomonas aeruginosa, 168 h, read-out: Minimum Inhibitory Concentration, cutting oil emulsion, incubation 1 week, 28°
# Experimental: Various aliquots of a 6% solution of the chemical in ethanol were added to cutting oil emulsions prepared by diluting Kutwell 30 cutting oil concentrate 1 to 30 with water. These samples were inoculated with a culture of Ps. aeruginosa and incubated at 28° on a rotary shaker. At weekly intervals the samples were examined for microorganisms and then reinoculated and incubated.
row,Compound,MIC
1,"C[n+]1scc(Cl)c1Cl [No. 22 (Table I), 3,4-Dichloro-2-methylisothiazolium fluorosulfonate]",32 mg/L
2,"CC[n+]1sccc1Cl [No. 18 (Table I), 3-Chloro-2-ethylisothiazolium ethylsulfate]",125 mg/L
3,Cn1sccc1=S [No. 3 (Table VIII)],125 mg/L
4,Cn1scc(Cl)c1=S [No. 4 (Table VIII)],< 32 mg/L
5,"C[n+]1sc(Cl)c(Cl)c1Cl.O=S(=O)([O-])C(F)(F)F [No. 4 (Table I), 2-Methyl-3,4,5-trichloroisothiazolium trifluoromethane sulfonate]",2 mg/L
6,CCC[n+]1sccc1Cl [No. 20 (Table I)],125 mg/L
7,"C[n+]1sccc1Cl.O=[N+]([O-])[O-] [No. 15 (Table I), 2-Methyl-3-chloroisothiazolium nitrate]",8 mg/L
8,"Cc1s[n+](C)c(Cl)c1Cl [No. 27 (Table I), 3,4-Dichloro-2,5-dimethylisothiazolium fluorosulfonate]",125 mg/L

# Same assay, conditions: Pseudomonas aeruginosa, 168 h; cutting oil emulsion, incubation 1 week, 28°; read-out: Minimum Inhibitory Concentration
row,MIC,Compound
1,< 16 mg/L,"C[n+]1sc(C#N)c(Cl)c1Cl [No. 25 (Table I), 5-Cyano-3,4-dichloro-2-methylisothiazolium fluorosulfonate]"
2,62 mg/L,"CN1SC(C#N)=C(Cl)C1=C(C#N)C#N [drawing 12 CH3, Cl, CN]"
3,< 32 mg/L,"CN1SC=C(Cl)C1=C(C#N)C#N [drawing 12 CH3, Cl, H]"
4,250 mg/L,CCOC(=O)c1sn(C)c(=S)c1Cl [No. 5 (Table VIII)]
5,250 mg/L,"CC1=C(Cl)C(=C(C#N)C#N)N(C)S1 [drawing 12 CH3, Cl, CH3]"
6,< 16 mg/L,"C[n+]1sc(Cl)c(C#N)c1Cl [No. 26 (Table I), 4-Cyano-3,5-dichloro-2-methylisothiazolium fluorosulfonate]"
7,250 mg/L,"CN1SC=CC1=C(C#N)C#N [drawing 12 CH3, H, H]"

# Same assay, conditions: Pseudomonas aeruginosa, 336 h, read-out: Minimum Inhibitory Concentration, cutting oil emulsion, incubation 2 weeks, 28°
row,Compound,MIC
1,"C[n+]1scc(Cl)c1Cl [No. 22 (Table I), 3,4-Dichloro-2-methylisothiazolium fluorosulfonate]",32 mg/L
2,"CC[n+]1sccc1Cl [No. 18 (Table I), 3-Chloro-2-ethylisothiazolium ethylsulfate]",125 mg/L
3,Cn1sccc1=S [No. 3 (Table VIII)],250 mg/L
4,Cn1scc(Cl)c1=S [No. 4 (Table VIII)],62 mg/L
5,"C[n+]1sc(Cl)c(Cl)c1Cl.O=S(=O)([O-])C(F)(F)F [No. 4 (Table I), 2-Methyl-3,4,5-trichloroisothiazolium trifluoromethane sulfonate]",2 mg/L
6,CCC[n+]1sccc1Cl [No. 20 (Table I)],250 mg/L
7,"C[n+]1sccc1Cl.O=[N+]([O-])[O-] [No. 15 (Table I), 2-Methyl-3-chloroisothiazolium nitrate]",8 mg/L
8,"Cc1s[n+](C)c(Cl)c1Cl [No. 27 (Table I), 3,4-Dichloro-2,5-dimethylisothiazolium fluorosulfonate]",250 mg/L

# Same assay, conditions: Pseudomonas aeruginosa, 336 h; cutting oil emulsion, incubation 2 weeks, 28°; read-out: Minimum Inhibitory Concentration
row,MIC,Compound
1,125 mg/L,"C[n+]1sc(C#N)c(Cl)c1Cl [No. 25 (Table I), 5-Cyano-3,4-dichloro-2-methylisothiazolium fluorosulfonate]"
2,250 mg/L,"CN1SC(C#N)=C(Cl)C1=C(C#N)C#N [drawing 12 CH3, Cl, CN]"
3,< 32 mg/L,"CN1SC=C(Cl)C1=C(C#N)C#N [drawing 12 CH3, Cl, H]"
4,125 mg/L,CCOC(=O)c1sn(C)c(=S)c1Cl [No. 5 (Table VIII)]
5,500 mg/L,"CC1=C(Cl)C(=C(C#N)C#N)N(C)S1 [drawing 12 CH3, Cl, CH3]"
6,125 mg/L,"C[n+]1sc(Cl)c(C#N)c1Cl [No. 26 (Table I), 4-Cyano-3,5-dichloro-2-methylisothiazolium fluorosulfonate]"
7,500 mg/L,"CN1SC=CC1=C(C#N)C#N [drawing 12 CH3, H, H]"

# Same assay, conditions: Pseudomonas aeruginosa, 504 h, read-out: Minimum Inhibitory Concentration, cutting oil emulsion, incubation 3 weeks, 28°
row,Compound,MIC
1,"CC[n+]1sccc1Cl [No. 18 (Table I), 3-Chloro-2-ethylisothiazolium ethylsulfate]",125 mg/L
2,Cn1sccc1=S [No. 3 (Table VIII)],250 mg/L
3,Cn1scc(Cl)c1=S [No. 4 (Table VIII)],62 mg/L
4,"C[n+]1sc(Cl)c(Cl)c1Cl.O=S(=O)([O-])C(F)(F)F [No. 4 (Table I), 2-Methyl-3,4,5-trichloroisothiazolium trifluoromethane sulfonate]",16 mg/L
5,CCC[n+]1sccc1Cl [No. 20 (Table I)],250 mg/L
6,"C[n+]1sccc1Cl.O=[N+]([O-])[O-] [No. 15 (Table I), 2-Methyl-3-chloroisothiazolium nitrate]",8 mg/L
7,"Cc1s[n+](C)c(Cl)c1Cl [No. 27 (Table I), 3,4-Dichloro-2,5-dimethylisothiazolium fluorosulfonate]",500 mg/L

# Same assay, conditions: Pseudomonas aeruginosa, 504 h; cutting oil emulsion, incubation 3 weeks, 28°; read-out: Minimum Inhibitory Concentration
row,MIC,Compound
1,250 mg/L,"C[n+]1sc(C#N)c(Cl)c1Cl [No. 25 (Table I), 5-Cyano-3,4-dichloro-2-methylisothiazolium fluorosulfonate]"
2,250 mg/L,"CN1SC(C#N)=C(Cl)C1=C(C#N)C#N [drawing 12 CH3, Cl, CN]"
3,< 32 mg/L,"CN1SC=C(Cl)C1=C(C#N)C#N [drawing 12 CH3, Cl, H]"
4,125 mg/L,CCOC(=O)c1sn(C)c(=S)c1Cl [No. 5 (Table VIII)]
5,500 mg/L,"CC1=C(Cl)C(=C(C#N)C#N)N(C)S1 [drawing 12 CH3, Cl, CH3]"
6,250 mg/L,"C[n+]1sc(Cl)c(C#N)c1Cl [No. 26 (Table I), 4-Cyano-3,5-dichloro-2-methylisothiazolium fluorosulfonate]"
7,500 mg/L,"CN1SC=CC1=C(C#N)C#N [drawing 12 CH3, H, H]"

# Same assay, conditions: Pseudomonas aeruginosa, 672 h, read-out: Minimum Inhibitory Concentration, cutting oil emulsion, incubation 4 weeks, 28°
row,Compound,MIC
1,"CC[n+]1sccc1Cl [No. 18 (Table I), 3-Chloro-2-ethylisothiazolium ethylsulfate]",500 mg/L
2,Cn1sccc1=S [No. 3 (Table VIII)],250 mg/L
3,Cn1scc(Cl)c1=S [No. 4 (Table VIII)],62 mg/L
4,"C[n+]1sc(Cl)c(Cl)c1Cl.O=S(=O)([O-])C(F)(F)F [No. 4 (Table I), 2-Methyl-3,4,5-trichloroisothiazolium trifluoromethane sulfonate]",64 mg/L
5,CCC[n+]1sccc1Cl [No. 20 (Table I)],500 mg/L
6,"C[n+]1sccc1Cl.O=[N+]([O-])[O-] [No. 15 (Table I), 2-Methyl-3-chloroisothiazolium nitrate]",8 mg/L
7,"Cc1s[n+](C)c(Cl)c1Cl [No. 27 (Table I), 3,4-Dichloro-2,5-dimethylisothiazolium fluorosulfonate]",500 mg/L

# Same assay, conditions: Pseudomonas aeruginosa, 672 h; cutting oil emulsion, incubation 4 weeks, 28°; read-out: Minimum Inhibitory Concentration
row,MIC,Compound
1,250 mg/L,"C[n+]1sc(C#N)c(Cl)c1Cl [No. 25 (Table I), 5-Cyano-3,4-dichloro-2-methylisothiazolium fluorosulfonate]"
2,250 mg/L,"CN1SC(C#N)=C(Cl)C1=C(C#N)C#N [drawing 12 CH3, Cl, CN]"
3,< 32 mg/L,"CN1SC=C(Cl)C1=C(C#N)C#N [drawing 12 CH3, Cl, H]"
4,62 mg/L,CCOC(=O)c1sn(C)c(=S)c1Cl [No. 5 (Table VIII)]
5,1000 mg/L,"CC1=C(Cl)C(=C(C#N)C#N)N(C)S1 [drawing 12 CH3, Cl, CH3]"
6,250 mg/L,"C[n+]1sc(Cl)c(C#N)c1Cl [No. 26 (Table I), 4-Cyano-3,5-dichloro-2-methylisothiazolium fluorosulfonate]"
7,500 mg/L,"CN1SC=CC1=C(C#N)C#N [drawing 12 CH3, H, H]"

# Same assay, conditions: cutting oil emulsion, incubation 3 weeks, 28°; listed as CH3, Cl, Cl, H, O3SF
row,Compound,Minimum Inhibitory Concentration
1,"C[n+]1scc(Cl)c1Cl [No. 22 (Table I), 3,4-Dichloro-2-methylisothiazolium fluorosulfonate]",125 µg/mL

# Same assay, conditions: cutting oil emulsion, incubation 4 weeks, 28°; listed as CH3, Cl, Cl, H, O3SF
row,Compound,Minimum Inhibitory Concentration
1,"C[n+]1scc(Cl)c1Cl [No. 22 (Table I), 3,4-Dichloro-2-methylisothiazolium fluorosulfonate]",250 µg/mL

# Test system: Aureobasidium pullulans
# Test: preservative for latex paints
# Format: cell-based
# Conditions: Aureobasidium pullulans, 504 h, read-out: Zone (zone of inhibition), Conc. 0.25% in vinyl acetate paint, three weeks, 27°-28°
# Experimental: Various quantities of the chemical were incorporated into a white exterior vinyl acetate paint. Whatman #30 filter paper was painted with one coat of paint on each side. One inch squares were cut and placed in Petri dishes on a malt agar.
# The surface of both the agar and the painted squares were inoculated with a spore suspension of Aureobasidium pullulans. The plates were examined for zones of inhibition and surface growth after three weeks incubation in a humidity chamber at 27°-28°.
# Various quantities of 4,5-dichloro-2-methyl-4-isothiazolin-3-thione were incorporated into a white exterior vinyl acetate paint and tested as described in Example IV.
row,Compound,zone of inhibition at 0.25 %
1,"C[n+]1scc(Cl)c1Cl [No. 22 (Table I), 3,4-Dichloro-2-methylisothiazolium fluorosulfonate]",0 mm

# Same assay, conditions: Aureobasidium pullulans, 504 h, read-out: Zone (zone of inhibition), Conc. 0.5% in vinyl acetate paint, three weeks, 27°-28°
row,Compound,zone of inhibition at 0.5 %
1,"C[n+]1scc(Cl)c1Cl [No. 22 (Table I), 3,4-Dichloro-2-methylisothiazolium fluorosulfonate]",0 mm

# Same assay, conditions: Aureobasidium pullulans, 504 h; Conc. 0.25% in vinyl acetate paint, three weeks, 27°-28°; read-out: Zone (zone of inhibition)
row,Compound,zone of inhibition at 0.25 %
1,"C[n+]1sc(Cl)c(C#N)c1Cl [No. 26 (Table I), 4-Cyano-3,5-dichloro-2-methylisothiazolium fluorosulfonate]",0 mm

# Same assay, conditions: Aureobasidium pullulans, 504 h; Conc. 0.5% in vinyl acetate paint, three weeks, 27°-28°; read-out: Zone (zone of inhibition)
row,Compound,zone of inhibition at 0.5 %
1,"C[n+]1sc(Cl)c(C#N)c1Cl [No. 26 (Table I), 4-Cyano-3,5-dichloro-2-methylisothiazolium fluorosulfonate]",0 mm
